Source: patent US20260335495A1, “SYNERGISTIC ACTIVITY OF NOVEL COMPOUNDS AGAINST PLANKTONIC AND BIOFILM CELLS OF CLINICALLY RELEVANT PATHOGENS” (priority 2021, published 2026)

Tests used:
[1] = system: C. albicans ON47; experiment: MIC and checkerboard (FICI), planktonic cells; format: cell-based; conditions: for MIC: alone, 24 h, 37 °C
Protocol: (§1) The MIC was determined by the micro broth dilution method in 96-well plates. […] A 10 μL containing 1×10^5 bacterial cells or 2×10^3 fungal cells were added to each well. The inoculated plates were covered with a lid, sealed with Parafilm, and incubated for 24 h at 37 °C with slight rocking on a tilting platform shaker. After incubation, the optical density at 600 nm (OD 600) of the cultures in each well was measured using an xMark™ Microplate Absorbance Spectrophotometer (Bio-Rad). The MIC was defined as the lowest concentration of antimicrobial compound at which the culture OD600 values was similar to uninoculated control wells. MBCs and MFCs were determined by transferring 100 μL from each well with no apparent growth onto appropriate agar plates, followed by incubation for 24 h at 37 °C.
(§2) The concentrations of antimicrobials used were based on previously determined MIC values. […] Microtiter plates were incubated at 37 °C for 24 h, and the results were analyzed. Each test was performed in duplicate and included a growth control without the addition of any antimicrobials.

[2] = system: Candida albicans SK4b; experiment: MIC and checkerboard (FICI), planktonic cells; format: cell-based; conditions: for MIC: alone, 24 h, 37 °C
Protocol: as §1, §2

[3] = system: E. coli SK2; experiment: MIC and checkerboard (FICI), planktonic cells; format: cell-based; conditions: for MIC: alone, 24 h, 37 °C
Protocol: as §1, §2

[4] = system: Escherichia coli ON29; experiment: MIC and checkerboard (FICI), planktonic cells; format: cell-based; conditions: for MIC: alone, 24 h, 37 °C
Protocol: as §1, §2

[5] = system: Proteus mirabilis ON153; experiment: MIC and checkerboard (FICI), planktonic cells; format: cell-based; conditions: for MIC: alone, 24 h, 37 °C
Protocol: as §1, §2

[6] = system: Pseudomonas aeruginosa SK1; experiment: MIC and checkerboard (FICI), planktonic cells; format: cell-based; conditions: for MIC: alone, 24 h, 37 °C
Protocol: as §1, §2

[7] = system: S. epidermidis SK9; experiment: MIC and checkerboard (FICI), planktonic cells; format: cell-based; conditions: for MIC: alone, 24 h, 37 °C
Protocol: as §1, §2

[8] = system: Serratia marcescens SK2; experiment: MIC and checkerboard (FICI), planktonic cells; format: cell-based; conditions: for MIC: alone, 24 h, 37 °C
Protocol: as §1, §2

[9] = system: Staphylococcus aureus ON89; experiment: MIC and checkerboard (FICI), planktonic cells; format: cell-based; conditions: for MIC: alone, 24 h, 37 °C
Protocol: as §1, §2

[10] = system: Staphylococcus epidermidis ON170; experiment: MIC and checkerboard (FICI), planktonic cells; format: cell-based; conditions: for MIC: alone, 24 h, 37 °C
Protocol: as §1, §2

[11] = system: Stenotrophomonas maltophilia ON17; experiment: MIC and checkerboard (FICI), planktonic cells; format: cell-based; conditions: for MIC: alone, 24 h, 37 °C
Protocol: as §1, §2

[12] = system: 12 test organisms; experiment: MBC/MFC and FMCI, planktonic cells, summary over strains; format: cell-based, bacterial and fungal organisms
Protocol: as §1, §2

[13] = system: Klebsiella pneumoniae; conditions: 40 mg/mL, locked for 21-25 h, catheter segments; cited from earlier work
[14] = system: E. coli; conditions: 40 mg/mL, locked for 21-25 h, catheter segments; cited from earlier work
[15] = system: S. epidermidis; conditions: 40 mg/mL, locked for 21-25 h, catheter segments; cited from earlier work
[16] = system: P. aeruginosa; conditions: 40 mg/mL, locked for 21-25 h, catheter segments; cited from earlier work
[17] = system: C. albicans; conditions: 40 mg/mL, locked for 21-25 h, catheter segments; cited from earlier work
[18] = 40 mg/mL solution (4% solution) in distilled water; cited from earlier work
[19] = system: clinically relevant pathogens; conditions: 4%; cited from earlier work
[20] = system: commonly encountered pathogens; conditions: cited from earlier work
[21] = high concentrations, ALS for CVADs; cited from earlier work

SMILES: O=C(O)CN(CCN(CC(=O)O)CC(=O)O)CC(=O)O.[Na].[Na].[Na].[Na] [TE, tetrasodium ethylenediaminetetraacetic acid]
- MIC in combination ([1]; TE + CH in combination): 0.125%
- MIC in combination ([1]; TE + ET in combination): 0.25%
- MIC [1]: 1%
- MIC in combination ([2]; TE + CH in combination): 0.063%
- MIC in combination ([2]; TE + ET in combination): 0.25%
- MIC [2]: 1%
- MIC in combination ([3]; TE + CH in combination): 0.008%
- MIC in combination ([3]; TE + ET in combination): 0.015%
- MIC [3]: 0.5%
- MIC in combination ([4]; TE + CH in combination): 0.008%
- MIC in combination ([4]; TE + ET in combination): 0.25%
- MIC [4]: 0.5%
- MIC in combination ([5]; TE + CH in combination): 0.063%
- MIC in combination ([5]; TE + ET in combination): 0.5%
- MIC [5]: 1%
- MIC in combination ([6]; TE + CH in combination): 0.5%
- MIC in combination ([6]; TE + ET in combination): 0.031%
- MIC [6]: 0.25%
- MIC in combination ([7]; TE + CH in combination): 0.015%
- MIC in combination ([7]; TE + ET in combination): 0.015%
- MIC [7]: 0.063%
- MIC in combination ([8]; TE + CH in combination): 0.063%
- MIC in combination ([8]; TE + ET in combination): 0.5%
- MIC [8]: 1%
- MIC in combination ([9]; TE + CH in combination): 0.008%
- MIC in combination ([9]; TE + ET in combination): 0.015%
- MIC [9]: 0.063%
- MIC in combination ([10]; TE + CH in combination): 0.063%
- MIC in combination ([10]; TE + ET in combination): 0.015%
- MIC [10]: 0.063%
- MIC in combination ([11]; TE + CH in combination): 0.015%
- MIC in combination ([11]; TE + ET in combination): 0.031%
- MIC [11]: 0.063%
- microbicidal activity [12]: broad-spectrum microbicidal activity
- biofilm colonization [13]: reduced biofilm colonization
- biofilm colonization [14]: reduced biofilm colonization
- biofilm colonization [15]: reduced biofilm colonization
- biofilm colonization [16]: reduced biofilm colonization
- biofilm colonization [17]: reduced biofilm colonization
- pH [18]: ~ 11.0
- biofilm eradication and microbial killing [19]: biofilm eradication and microbial killing ability

SMILES: CCO [ET, ethanol]
- MIC in combination ([1]; TE + ET in combination): 0.4%
- MIC [1]: 6.25%
- MIC in combination ([2]; TE + ET in combination): 1.6%
- MIC [2]: 6.25%
- MIC in combination ([3]; TE + ET in combination): 6.25%
- MIC [3]: 12.5%
- MIC in combination ([4]; TE + ET in combination): 3.125%
- MIC [4]: 12.5%
- MIC in combination ([5]; TE + ET in combination): 1.6%
- MIC [5]: 6.25%
- MIC in combination ([6]; TE + ET in combination): 3.125%
- MIC [6]: 3.125%
- MIC in combination ([7]; TE + ET in combination): 0.4%
- MIC [7]: 6.25%
- MIC in combination ([8]; TE + ET in combination): 3.125%
- MIC [8]: 6.25%
- MIC in combination ([9]; TE + ET in combination): 0.4%
- MIC [9]: 6.25%
- MIC in combination ([10]; TE + ET in combination): 0.4%
- MIC [10]: 3.125%
- MIC in combination ([11]; TE + ET in combination): 0.4%
- MIC [11]: 6.25%
- microbicidal activity [12]: broad-spectrum microbicidal activity
- concentration required for a 3-log reduction [20]: ≥ 60%
- adverse events [21]: breaches in catheter integrity, systemic toxicity, and protein precipitation causing intraluminal occlusions
